Molecular target: T1, PKCα (Homo sapiens, UniProt P17252)
T1 construct: isolate and photo-release endogenous PKCa from the undiluted detergent fractionated HeLa cell extracts; endogenous in cells; host or cells: HeLa cells (ATCC)
Assay: PMA mediated PKCα sub-cellular translocation, measured by kinase activity after photocleavable antibody isolation
Assay type: cell-based
Settings: cultured HeLa cells stimulated with 200 nM PMA for 5 min, detergent fractionated; based on kinase activity of isolated PKCα; n=4
Procedure: FIG. 20. Phorbol ester (PMA) mediated protein kinase Cα (PKCα) sub-cellular translocation as measured by functional activity following isolation with photocleavable antibodies. Cultured HeLa cells were stimulated with 200 nM PMA for 5 min and detergent fractionated into the cytosol and membrane compartments prior to isolation and purification with the photocleavable antibodies.
Cultured HeLa cells (ATCC; Manassas, Va.) were stimulated for 5 min with 200 nM Phorbol-12-Myristate-13-Acetate (PMA; EMD Biosciences, Inc., San Diego, Calif.) and subsequently detergent fractionated into sub-cellular compartments according to reported procedures [Ramsby et al. (1994) Electrophoresis 15, 265-277; Ramsby & Makowski. (1999) Methods Mol Biol 112, 53-66; Chiang et al. (2000) J Biochem Biophys Methods 46, 53-68]. PMA is a potent activator of PKCα and is well known to cause translocation of the kinase from the cytosolic to the membrane sub-cellular compartments [Ross & Joyner. (1997) Endothelium 5, 321-332; Bazan & Rapoport. (1996) JPharmacol Toxicol Methods 36, 87-95; Yazlovitskaya & Melnykovych. (1995) Cancer Lett 88, 179-183]. […]

## CCCCCCCCCCCCCC(=O)O[C@@H]1[C@@H](C)[C@@]2(O)[C@@H](C=C(CO)C[C@]3(O)C(=O)C(C)=C[C@@H]23)[C@@H]2C(C)(C)[C@]12OC(C)=O [PMA, Phorbol-12-Myristate-13-Acetate]
  relative sub-cellular distribution of PKCα: cytosol: 16±4%
  relative sub-cellular distribution of PKCα: membrane: 84±3%

— patent US9334530B2, “Methods for making and imaging arrays that comprise a plurality of different biomolecules” (AmberGen, Inc., priority 2007, dated 2016)
